Measurements from patent US7618983B2, “Bicyclic triazole α4 integrin inhibitors” (Janssen Pharmaceutica, N.V., priority 2004, dated 2009).
Where two headings read alike, the source gives them in different places.

Experiments:
[1] = molecular target: T1, human α4β7 integrin (Homo sapiens, UniProt P13612+P26010); assay: α4β7-K562 Cell Adhesion Assay (α4β7 Mediated Adhesion/MAdCAM-1); format: cell-based; settings: K562 cells expressing human α4β7 adhering to FLAG-hMAdCAM-1, 1 mM Mn2+; read-out: α4β7, Madcam IC50
T1 construct: expressed in transfected cells; host or cells: K562 cells, stably transfected
T1 sequence (P13612 34-1032): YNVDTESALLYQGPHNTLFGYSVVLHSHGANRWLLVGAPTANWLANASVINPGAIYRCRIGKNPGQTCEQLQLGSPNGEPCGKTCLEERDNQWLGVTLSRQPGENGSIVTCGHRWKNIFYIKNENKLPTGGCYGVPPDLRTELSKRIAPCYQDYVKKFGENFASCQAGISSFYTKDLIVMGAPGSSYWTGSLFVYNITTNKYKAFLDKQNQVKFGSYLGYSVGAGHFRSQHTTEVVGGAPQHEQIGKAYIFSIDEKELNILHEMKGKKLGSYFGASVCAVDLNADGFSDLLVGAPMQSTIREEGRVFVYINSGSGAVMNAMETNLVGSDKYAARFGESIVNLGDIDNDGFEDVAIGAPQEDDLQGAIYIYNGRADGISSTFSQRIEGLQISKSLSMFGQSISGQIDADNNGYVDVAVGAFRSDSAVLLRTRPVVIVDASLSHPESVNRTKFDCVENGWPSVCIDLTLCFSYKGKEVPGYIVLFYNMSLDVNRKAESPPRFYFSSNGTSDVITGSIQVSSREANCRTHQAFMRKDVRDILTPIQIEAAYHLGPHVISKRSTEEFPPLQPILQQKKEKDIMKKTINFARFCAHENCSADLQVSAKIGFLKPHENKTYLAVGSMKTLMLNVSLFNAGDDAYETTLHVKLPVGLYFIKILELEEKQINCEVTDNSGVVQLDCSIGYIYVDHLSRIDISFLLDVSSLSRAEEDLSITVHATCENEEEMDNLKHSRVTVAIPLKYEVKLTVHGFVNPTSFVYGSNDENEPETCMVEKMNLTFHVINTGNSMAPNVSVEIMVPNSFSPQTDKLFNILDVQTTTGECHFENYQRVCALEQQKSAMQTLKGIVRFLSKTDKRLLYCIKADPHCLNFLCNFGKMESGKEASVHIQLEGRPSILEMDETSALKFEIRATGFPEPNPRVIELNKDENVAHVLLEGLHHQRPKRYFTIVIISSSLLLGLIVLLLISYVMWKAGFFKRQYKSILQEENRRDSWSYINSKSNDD
T1 sequence (P26010 20-798): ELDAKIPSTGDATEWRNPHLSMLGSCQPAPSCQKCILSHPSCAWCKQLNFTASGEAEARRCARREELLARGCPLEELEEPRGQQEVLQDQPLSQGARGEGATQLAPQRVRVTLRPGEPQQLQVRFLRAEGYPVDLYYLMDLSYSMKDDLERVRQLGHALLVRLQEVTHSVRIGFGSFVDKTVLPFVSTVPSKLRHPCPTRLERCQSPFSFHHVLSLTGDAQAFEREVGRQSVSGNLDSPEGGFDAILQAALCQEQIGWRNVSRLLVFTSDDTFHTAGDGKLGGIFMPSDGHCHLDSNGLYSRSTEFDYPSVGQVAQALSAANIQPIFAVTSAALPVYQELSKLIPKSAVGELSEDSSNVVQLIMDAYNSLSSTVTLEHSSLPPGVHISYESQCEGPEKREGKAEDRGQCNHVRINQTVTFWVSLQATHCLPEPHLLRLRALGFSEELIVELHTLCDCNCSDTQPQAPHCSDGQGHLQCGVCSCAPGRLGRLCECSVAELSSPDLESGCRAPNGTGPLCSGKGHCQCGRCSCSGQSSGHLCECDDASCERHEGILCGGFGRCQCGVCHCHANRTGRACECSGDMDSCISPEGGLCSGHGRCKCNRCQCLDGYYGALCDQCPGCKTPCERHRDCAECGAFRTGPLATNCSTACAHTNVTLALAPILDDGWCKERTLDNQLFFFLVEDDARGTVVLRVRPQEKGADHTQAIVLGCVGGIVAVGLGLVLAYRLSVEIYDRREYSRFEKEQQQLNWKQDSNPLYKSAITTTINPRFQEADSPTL
Method: α4β7-K562 Cell Adhesion Assay (α4β7 Mediated Adhesion/MAdCAM-1)
M2 anti-FLAG antibody coated 96-well plates (Sigma) were coated for 1 hour at 4° C. with 2-8 μl/well recombinant FLAG-hMAdCAM-1 contained in 100 μL of Dulbecco's PBS, pH 7.4, with 1% BSA and 1 mM Mn^2+ (PBS-BSA-Mn). Plates were washed once with PBS-BSA-Mn. Buffer was removed and compounds to be tested (50 μL) were added at 2 times concentration. Stably transfected K562 cells expressing human α4β7 integrin, (50 μL at 2×10^6/mL) that had been labeled with 100 μg/mL carboxymethyl fluorescein diacetate succinimidyl ester (CFDA-SE; Molecular Probes) for 15 min at 37° C. were added to each well and allowed to adhere for 1 h at room temperature. Plates were washed 4 times in PBS-BSA-Mn and then cells were lysed for 2 minutes by addition of 100 μL of PBS without Ca, Mg supplemented with 0.1 M NaOH. The plate was read on a 96-well fluorescent plate reader at 485 nm excitation and 530 nm emission.

[2] = molecular target: T2, α4β1 (Homo sapiens, UniProt P05556+P13612); assay: Ramos Cell Adhesion Assay (α4β1 Mediated Adhesion/VCAM-1); format: cell-based; design: Ramos Cell Adhesion Assay (α4β1 Mediated Adhesion/VCAM-1); endogenous in cells; host or cells: Ramos cells; settings: Ramos cells adhering to recombinant hVCAM-1; read-out: α4β1 IC50
Method: Ramos Cell Adhesion Assay (α4β1 Mediated Adhesion/VCAM-1)
Immulon 96 well plates (Dynex) were coated with 100 μL recombinant hVCAM-1 at 4.0 μg/mL in 0.05 M NaCO3 buffer pH 9.0 overnight at 4° C. (R&D Systems). Plates were washed 3 times in PBS with 1% BSA and blocked for 1 h @ room temperature in this buffer. PBS was removed and compounds to be tested (50 μL) were added at 2× concentration. Ramos cells, (50 μL at 2×10^6/mL) labeled with 5 μM Calcein AM (Molecular Probes) for 1 h at 37° C., were added to each well and allowed to adhere for 1 h at room temperature. Plates were washed 3× in PBS+1% BSA and cells were lysed for 15 minutes in 100 μL of 1 M Tris pH 8.0 with 1% SDS. The plate was read at 485 nm excitation and 530 nm emission.

[3] = system: oxazolone-induced contact hypersensitivity; settings: 6 mg/kg, sc; compared with α4 antibody PS/2; cited from earlier work
[4] = system: heterotopic heart allograft; settings: hyperlipidemic rabbit; cited from earlier work
[5] = molecular target: T2, α4β1; settings: cited from earlier work

T2 sequence (P05556 21-798, one chain of several): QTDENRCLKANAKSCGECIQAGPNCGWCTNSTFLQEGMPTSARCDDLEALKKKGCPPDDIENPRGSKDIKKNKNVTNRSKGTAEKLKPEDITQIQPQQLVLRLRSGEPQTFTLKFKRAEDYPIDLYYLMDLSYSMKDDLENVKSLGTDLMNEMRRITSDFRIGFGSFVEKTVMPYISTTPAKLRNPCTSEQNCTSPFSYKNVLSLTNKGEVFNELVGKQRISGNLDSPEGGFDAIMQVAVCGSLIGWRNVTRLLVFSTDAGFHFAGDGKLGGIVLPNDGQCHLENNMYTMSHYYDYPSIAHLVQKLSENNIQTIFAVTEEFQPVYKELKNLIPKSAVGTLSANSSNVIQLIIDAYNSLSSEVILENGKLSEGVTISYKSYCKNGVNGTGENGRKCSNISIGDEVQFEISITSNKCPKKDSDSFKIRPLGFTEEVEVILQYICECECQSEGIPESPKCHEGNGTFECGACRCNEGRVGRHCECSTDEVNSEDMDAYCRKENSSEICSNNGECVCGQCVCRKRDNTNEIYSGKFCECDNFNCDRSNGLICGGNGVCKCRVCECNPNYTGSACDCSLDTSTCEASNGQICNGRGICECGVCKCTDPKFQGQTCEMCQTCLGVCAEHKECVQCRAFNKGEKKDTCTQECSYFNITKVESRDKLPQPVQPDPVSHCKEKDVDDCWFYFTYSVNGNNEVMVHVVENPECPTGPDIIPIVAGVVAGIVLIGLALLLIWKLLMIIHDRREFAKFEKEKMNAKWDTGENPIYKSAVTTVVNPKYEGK

Row | Compound | IC50 [1] [µM] | IC50 [2] [µM] | efficacy in contact hypersensitivity [3] | efficacy in heart allograft model [4] | IC50 [5] [µM]
1 | COc1cccc(OC)c1-c1ccc(C[C@H](NC(=O)[C@@H]2CCc3nnc(Cc4ccsc4)n32)C(=O)O)cc1 [Cpd 15, 3-(2′,6′-Dimethoxy-biphenyl-4-yl)-2-(S)-[(3-thiophen-3-ylmethyl-6,7-dihydro-5H-pyrrolo[2,1-c][1,2,4]triazole-5-(S)-carbonyl)-amino]-propionic acid] | 0.09 | 0.71 | – | – | –
2 | COc1cccc(OC)c1-c1ccc(CC(NC(=O)C2CCc3nnc(Cc4c[nH]c5ccccc45)n32)C(=O)O)cc1 (centres unmarked) [Cpd 16, 3-(2′,6′-Dimethoxy-biphenyl-4-yl)-2-{[3-(1H-indol-3-ylmethyl)-6,7-dihydro-5H-pyrrolo[2,1-c][1,2,4]triazole-5-carbonyl]-amino}-propionic acid] | 0.04 | > 5 | – | – | –
3 | COc1cnn(C)c(=O)c1-c1ccc(C[C@H](NC(=O)[C@@H]2CCc3nnc(Cc4ccccc4)n32)C(=O)O)cc1 [Cpd 17, 2-(S)-[(3-Benzyl-6,7-dihydro-5H-pyrrolo[2,1-c][1,2,4]triazole-5-(S)-carbonyl)-amino]-3-[4-(5-methoxy-2-methyl-3-oxo-2,3-dihydro-pyridazin-4-yl)-phenyl]-propionic acid] | 0.4 | 0.64 | – | – | –
4 | O=C(Nc1ccc(C[C@H](NC(=O)[C@@H]2CCc3n[nH]c(=O)n32)C(=O)O)cc1)c1c(Cl)cccc1Cl [Cpd 18, 3-[4-(2,6-Dichloro-benzoylamino)-phenyl]-2-(S)-[(3-oxo-2,5,6,7-tetrahydro-3H-pyrrolo[2,1-c][1,2,4]triazole-5-(S)-carbonyl)-amino]-propionic acid] | 0.09 | 0.85 | – | – | –
5 | O=C(Nc1ccc(C[C@H](NC(=O)[C@@H]2CCc3nn(Cc4ccccc4)c(=O)n32)C(=O)O)cc1)c1c(Cl)cccc1Cl [Cpd 19, 2-(S)-[(2-Benzyl-3-oxo-2,5,6,7-tetrahydro-3H-pyrrolo[2,1-c][1,2,4]triazole-5-(S)-carbonyl)-amino]-3-[4-(2,6-dichloro-benzoylamino)-phenyl]-propionic acid] | 0.2 | > 5 | – | – | –
6 | O=C(Nc1ccc(C[C@H](NC(=O)[C@@H]2CCc3n[nH]c(=O)n32)C(=O)O)cc1)c1c(Cl)cncc1Cl [Cpd 20, 3-{4-[(3,5-Dichloro-pyridine-4-carbonyl)-amino]-phenyl}-2-(S)-[(3-oxo-2,5,6,7-tetrahydro-3H-pyrrolo[2,1-c][1,2,4]triazole-5-(S)-carbonyl)-amino]-propionic acid] | 0.05 | 0.45 | – | – | –
7 | O=C(Nc1ccc(C[C@H](NC(=O)[C@@H]2CCc3nn(Cc4ccccc4)c(=O)n32)C(=O)O)cc1)c1c(Cl)cncc1Cl [Cpd 21, 2-(S)-[(2-Benzyl-3-oxo-2,5,6,7-tetrahydro-3H -pyrrolo[2,1-c][1,2,4]triazole-5-(S)-carbonyl)-amino]-3-{4-[(3,5-dichloro-pyridine-4-carbonyl)-amino]-phenyl}-propionic acid] | 0.78 | > 5 | – | – | –
8 | Phenylacetyl-Leu-Asp-Phe-D-Pro-NH2 | – | – | efficacy similar to the α4 antibody PS/2 | effective | 2
